Results from paper PMC6716157 (Journal of the American Chemical Society, 2019).

Tests used:
[1] = target: T1, MuMftD (MftD) (Mycobacterium ulcerans, UniProt A0PM50); assay: HPLC of flavin released by heat from purified protein; type: binding; details: copurified; bound reduced as isolated, released on oxidation
T1 sequence (A0PM50 1-390): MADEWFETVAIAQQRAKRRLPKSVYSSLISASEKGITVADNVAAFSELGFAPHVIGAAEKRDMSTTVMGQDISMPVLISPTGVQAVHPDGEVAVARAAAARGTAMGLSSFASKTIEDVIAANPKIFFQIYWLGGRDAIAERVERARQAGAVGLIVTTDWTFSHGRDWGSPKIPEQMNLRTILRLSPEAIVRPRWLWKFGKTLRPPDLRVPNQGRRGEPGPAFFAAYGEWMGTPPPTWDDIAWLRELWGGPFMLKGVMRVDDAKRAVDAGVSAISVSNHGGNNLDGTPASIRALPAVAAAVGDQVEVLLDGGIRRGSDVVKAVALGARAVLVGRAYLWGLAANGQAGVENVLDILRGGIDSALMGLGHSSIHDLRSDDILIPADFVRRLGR

[2] = target: MsMftD (Mycolicibacterium smegmatis, UniProt A0QSB9); assay: HPLC of product, aerobic; type: biochemical; details: oxidative deamination to PMFT
[3] = target: MsCDH (carveol dehydrogenase, Msmeg_1410) (Mycolicibacterium smegmatis, UniProt A0QSA5); assay: UV-vis absorbance of copurified NADH at […] nm; type: binding; details: pH 7.0, non-exchangeable, oxidised by PMFT
Sequence of MsCDH (carveol dehydrogenase, Msmeg_1410) (A0QSA5 1-283): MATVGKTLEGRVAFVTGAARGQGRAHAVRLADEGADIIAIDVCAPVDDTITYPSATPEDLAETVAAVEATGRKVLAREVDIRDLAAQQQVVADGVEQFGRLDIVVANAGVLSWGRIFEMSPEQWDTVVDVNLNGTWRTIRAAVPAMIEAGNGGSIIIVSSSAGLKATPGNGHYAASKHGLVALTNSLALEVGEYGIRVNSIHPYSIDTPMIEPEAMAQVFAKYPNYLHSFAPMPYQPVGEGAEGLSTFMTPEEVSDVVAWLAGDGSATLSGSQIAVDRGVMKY

Sequence of MsMftD (A0QSB9 whole entry): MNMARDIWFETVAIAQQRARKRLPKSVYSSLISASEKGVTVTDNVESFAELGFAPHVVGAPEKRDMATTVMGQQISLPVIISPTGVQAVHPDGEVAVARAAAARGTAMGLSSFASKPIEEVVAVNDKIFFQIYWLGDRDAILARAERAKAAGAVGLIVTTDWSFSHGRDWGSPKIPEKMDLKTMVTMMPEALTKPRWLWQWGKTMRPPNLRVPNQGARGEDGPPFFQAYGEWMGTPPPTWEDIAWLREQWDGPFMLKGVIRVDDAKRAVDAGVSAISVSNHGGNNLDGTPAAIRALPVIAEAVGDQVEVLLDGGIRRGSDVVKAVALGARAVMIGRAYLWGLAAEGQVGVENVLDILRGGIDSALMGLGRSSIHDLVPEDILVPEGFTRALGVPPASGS

## Cc1cc2nc3c(=O)[nH]c(=O)nc-3n(C[C@H](O)[C@H](O)[C@H](O)COP(=O)(O)O)c2cc1C [FMN]
[1]
  HPLC of flavin released by heat from purified protein; UV-vis: the absorbance features of the cofactor bound to MuMftD originated from FMN

## CC1(C)C(Cc2ccc(O)cc2)NC(=O)C1N (stereo not drawn) [AHDP, 3-amino-5-[(p-hydroxyphenyl)methyl]-4,4-dimethyl-2-pyrrolidinone]
[2]
  HPLC of product, aerobic: the HPLC chromatogram for the MsMftD reaction showed similar results to that of MuMftD

## NC(=O)C1=CN([C@@H]2O[C@H](COP(=O)(O)OP(=O)(O)OC[C@H]3O[C@@H](n4cnc5c(N)ncnc54)[C@H](O)[C@@H]3O)[C@@H](O)[C@H]2O)C=CC1 [NADH]
[3]
  UV-vis absorbance of copurified NADH at 340 nm: PMFT is mediating the oxidation of NADH to NAD^+ on MsCDH
